Data on four compounds can be found in patent US11787850B2, “Peptidic TGF-beta antagonists” (priority 2015, dated 2023).

Experiment [1] concerns TGF-β-induced EMT in HaCaT cells. Kind of experiment: Immunofluorescence of F-actin and E-cadherin in HaCaT cells with pathway inhibitors. In kind it is cell-based, human. Particulars: for effect mediated by CD109 siRNA transfection on actin stress fibers appearance and relocalization of E-cadherin / effect on EMT markers in the absence of TGF-β: 0.5 μM SB431542, 1 μM SB203580, 10 μM U0126; for effect on EMT markers in the absence of TGF-β: data not shown.

In experiment [2] the test system is TGF-β-induced fibronectin and Slug expression in HaCaT cells. Kind of experiment: Western blot for fibronectin and Slug in HaCaT cells with pathway inhibitors. In kind it is cell-based, human. Particulars: for effect of CD109 knock-down on TGF-β-induced Slug expression: 100 pM TGF-β1, 4 hrs, 0.5 μM SB431542, 10 μM U0126; for fibronectin production: CD109 siRNA HaCaT cells, 100 pM TGF-β1, 16 hrs, 0.5 μM SB431542, 1 μM SB203580, 10 μM U0126. For orientation: Immunoblotting shows a protein as a band on a membrane.

Experiment [3] concerns TGF-β-induced migration of HaCaT cells. Kind of experiment: Scratch assay in HaCaT cells with pathway inhibitors. In kind it is cell-based, human. As to conditions: 100 pM TGF-β1, 36 hrs; 0.5 μM SB431542, 1 μM SB203580, 10 μM U0126.
Description: (FIG. 18A) HaCaT cells transfected with control or CD109 siRNA were scratched and treated with or without 100 pM TGF-β1, 0.5 μM SB431542, 1 μM SB203580 and/or 10 μM U0126 for 36 hrs. Dotted line: wound margin at 0 hr, regular line: wound margin at 36 hrs.
Confluent monolayers of HaCaT or A431 cells were wounded by scrapping the cells with a 200 μl pipette tip. Cells were then incubated with 100 pM TGF-β1, in presence or absence of 10 μM U0126, 1 μM SB203580, 0.5 μM SB431542 in serum free medium for 24-48 hrs. Pictures were taken at the same spot at 0 hr, 24 hrs and 48 hrs. The cell-free area (wound) area was measured using ImageJ™ software and the percentage of original wound area filled with keratinocytes was calculated. At least 3 independents series of experiments were performed in triplicates.
Finally, it was determined whether CD109's effect on migration was also mediated by the SMAD2/3 and MAPK pathways.
Experiment [4] relates to TGF-β-induced epithelial-mesenchymal transition (EMT) response in squamous cell carcinoma (A431) cells. Kind of experiment: Immunoblot of EMT markers in A431 cells. As to conditions: 10 nM peptide, 100 pM TGF-b, 24 hrs (FIG. 33). In kind it is cell-based. How it is done:
(FIG. 26A) Immunoblot analysis was carried out using cell lysates of A431 cells following incubation with TGF-β, P16, or scrambled control (P16.2) as indicated to determine expression of proteins involved in the EMT response. (FIG. 26B) Densitometry analysis was subsequently performed using the developed immunoblot to illustrate the relative expression of each protein as a function as P16 concentration as indicated.
A431 cancer cells treated with 10 nM of P16.2 (negative peptide control), P12, P16 or PA in the absence or presence of 100 pM TGF-b, followed by 24 hrs of incubation. Cells lysates were analyzed by Western blot for the expression of Fibronectin (mesenchymal marker), Snail and Twist (EMT markers). Actin expression was used as loading control.

The test system of experiment [5] is bleomycin-induced skin fibrosis. Briefly: Bleomycin-induced skin fibrosis (scleroderma) mouse model. In kind it is in vivo. The procedure: Wild type mice were treated with bleomycin ([…]) to induce skin fibrosis or PBS (negative control). Mice were treated with CD109 ([…]), P16 ([…]), or PBS by 100 μL subcutaneous injection every other day for 28 days for a total of 14 injections.
(§1) Mice were injected intradermally with bleomycin (5 mg) in […] PBS or PBS alone every second day for 28 days. Mice were co-injected without or with 1.0 mg recombinant CD109 protein or P16 peptide every second day for 28 days (14 mg total). Skin tissue was harvested and immunohistochemical analysis was performed for the detection of Fibronectin, α-sma, CTGF and Type-1 Collagen. Representative images of sections of skin derived from CD109 and p16 treated mice on day 28 after initial bleomycin or PBS treatment are shown. A total of 4-6 different mice per treatment group were analyzed. Original magnification x 20.
as §1, with “phospho-Smad2, phospho-Smad1” for “Fibronectin, α-sma, CTGF”, “TGF-β levels.” for “Type-1 Collagen.”

Experiment [6] concerns cancer stem cells (CD133 positive cells), epidermoid A431. Kind of experiment: Flow cytometry of CD133 positive cells, A431. The format is cell-based. Particulars: 10 nM, 100 pM TGF-b1, 24 hours (FIG. 39). The procedure: (§2) A431 cancer cells (8000 cells) were seeded on a BioCoat™ Matrigel® Invasion Chamber and treated with 10 nM of P16.2 (negative peptide control), P16 or PA in the absence or presence of 100 pM TGF-b, followed by 24 hrs of incubation. Invasive cells (in the lower chambers) were stained by crystal violet dye, photographed and counted. Representative photos (A) and statistical plots of invasion (B) are shown. The data are shown as mean±SD of the number of invasive cells for three independent experiments. **P<0.01 and ***P<0.001 as compared with controls. […] Squamous cell carcinoma (epidermoid A431 and head and neck FaDu) cells were stimulated with 100 pM of TGF-b1, then treated with 10 nM of peptide 16.2, P16, PA or CD109 for 24 hours. Cells were analysed by Flow cytometry and CD133 positive cell population, which represent cancer stem cell population, were quantified.
In general terms: A flow cytometer gives signals particle by particle.

Experiment [7] has as its system cancer stem cells (CD133 positive cells), head and neck FaDu. Briefly: Flow cytometry of CD133 positive cells, FaDu. In kind it is cell-based. As to conditions: 10 nM, 100 pM TGF-b1, 24 hours (FIG. 39). How it is done: as §2
Where [8] appears, read: co-injected with bleomycin every second day for 28 days (FIG. 37).

Regarding `NC(=O)c1ccc(-c2nc(-c3ccc4c(c3)OCO4)c(-c3ccccn3)[nH]2)cc1` [SB431542], the “appearance of actin stress fibers in control siRNA transfected cells” value in experiment [1] (100 pM TGF-β1, 36 hrs, 0.5 μM SB431542) was “totally prevents”. In addition, in experiment [1] (100 pM TGF-β1, 36 hrs), the “effect mediated by CD109 siRNA transfection on actin stress fibers appearance and relocalization of E-cadherin” value is listed as “reduces (but does not abrogate)”. Also, the “effect on EMT markers in the absence of TGF-β” value in experiment [1] is on record as “no effect”. Besides, in experiment [2], the “effect of CD109 knock-down on TGF-β-induced Slug expression” value is on record as “abrogated” and the fibronectin production result is “totally abrogated”. Further, the “increase of TGF-β-induced cell migration by CD109 knock-down” value in experiment [3] is given as “partially reversed”.
As to ETWIWLDTNMGS [Peptide P12], in experiment [4], the “inhibition of TGF-b induced EMT response (Fibronectin, Snail, Twist)” value is recorded as “not”.
Turning to “Recombinant CD109: recombinant CD109 protein”, in experiment [5] (setting [8]), the “SMAD1 phosphorylation in skin (immunohistochemistry)” value is “enhancing”, the “SMAD2 phosphorylation in skin (immunohistochemistry)” value is “reduces” and the “TGF-β expression in skin (immunohistochemistry)” value is recorded as “reduces”. In experiment [5] (co-injected with bleomycin every second day for 28 days, skin on day 28 (FIG. 36)), the “extracellular matrix production (Fibronectin, α-sma, CTGF, Type-1 Collagen, immunohistochemistry)” value is given as “reduces”. For the same compound, the “number of cancer stem cells (CD133 positive cells), A431” value in experiment [6] is listed as “inhibit”. Besides, the “number of cancer stem cells (CD133 positive cells), FaDu” value in experiment [7] is “inhibit”.
As to `N#CC(=C(/N)Sc1ccccc1N)/C(C#N)=C(\N)Sc1ccccc1N` [Peptide U0126, U0126], in experiment [1] (100 pM TGF-β1, 36 hrs), the “effect mediated by CD109 siRNA transfection on actin stress fibers appearance and relocalization of E-cadherin” value is on record as “reduces (but does not abrogate)”. In experiment [1], the “effect on EMT markers in the absence of TGF-β” value is given as “no effect”. Moreover, in experiment [2], the “effect of CD109 knock-down on TGF-β-induced Slug expression” value is “abrogated” and the fibronectin production result is “reduced”. For the same compound, in experiment [3], the “increase of TGF-β-induced cell migration by CD109 knock-down” value was “partially reversed”.
